Legend:
Type in all cases: in vivo
[1] = system: ducksalad (Heteranthera limosa); assay: Test B flooded paddy; settings: Heteranthera limosa, 336 h; 250 g ai/ha, Flood, 13 to 15 days, scale 0 (no effect) to 100 (complete control); read-out: Plant response rating, Ducksalad
Outline: (§1)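 Compound was added to standing water 3 cm above soil, flood maintained, and plants held in a greenhouse before visual scoring against controls at 13 to 15 days.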

rice (Oryza sativa) = assay: Test B flooded paddy; settings: Oryza sativa, 336 h; 250 g ai/ha, Flood, 13 to 15 days, scale 0 (no effect) to 100 (complete control); read-out: Plant response rating, Rice
Outline: as §1

[2] = system: sedge, umbrella (small-flower umbrella sedge, Cyperus difformis); assay: Test B flooded paddy; settings: Cyperus difformis, 336 h; 250 g ai/ha, Flood, 13 to 15 days, scale 0 (no effect) to 100 (complete control); read-out: Plant response rating, Sedge, Umbrella
Outline: as §1

[3] = system: barnyardgrass (Echinochloa crus-galli); assay: Test B flooded paddy; settings: Echinochloa crus-galli, 336 h; 250 g ai/ha, Flood, 13 to 15 days, scale 0 (no effect) to 100 (complete control); read-out: Plant response rating, Barnyardgrass
Outline: as §1

[4] = system: Italian ryegrass (Lolium multiflorum); assay: Test C postemergence; settings: Lolium multiflorum, post-emergence, 336 h, Postemergence, scale 0 to 100, read-out: Plant response rating, Ryegrass, Italian
Outline: (§2)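 Visual ratings (0 none to 100 complete control) were made 13 to 15 days after treatment, relative to controls. Test chemicals, formulated in a non-phytotoxic solvent mixture with surfactant, were applied in the greenhouse preemergence to seeded loam-sand soil or postemergence to plants 2 to 18 cm tall.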

wild oat (Avena fatua) = assay: Test C postemergence; settings: Avena fatua, post-emergence, Postemergence, scale 0 to 100, read-out: Plant response rating, Oat, Wild
Outline: as §2

[5] = system: ragweed (common ragweed, Ambrosia elatior); assay: Test A preemergence; settings: Ambrosia artemisiifolia, pre-emergence, 240 h, 1000 g ai/ha, 0 to 100 scale, read-out: Plant response rating, Ragweed
Outline: (§3)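 Visual injury scored 0–100 (100 = complete control) against untreated controls about 10 days after treatment in a greenhouse. Test chemicals, formulated with surfactant in non-phytotoxic solvent, were sprayed on soil preemergence or on 2-10 cm, one- to two-leaf plants postemergence.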

kochia (Kochia scoparia) [6] = assay: Test A preemergence; settings: Bassia scoparia, pre-emergence, 240 h, 1000 g ai/ha, 0 to 100 scale, read-out: Plant response rating, Kochia
Outline: as §3

[7] = system: pigweed (Amaranthus retroflexus); assay: Test A preemergence; settings: Amaranthus retroflexus, pre-emergence, 240 h, 1000 g ai/ha, 0 to 100 scale, read-out: Plant response rating, Pigweed
Outline: as §3

[8] = system: barnyardgrass (Echinochloa crus-galli); assay: Test A preemergence; settings: Echinochloa crus-galli, pre-emergence, 240 h, 1000 g ai/ha, 0 to 100 scale, read-out: Plant response rating, Barnyardgrass
Outline: as §3

[9] = system: Italian ryegrass (Lolium multiflorum); assay: Test A preemergence; settings: Lolium multiflorum, pre-emergence, 240 h, 1000 g ai/ha, 0 to 100 scale, read-out: Plant response rating, Ryegrass, Italian
Outline: as §3

[10] = system: giant foxtail (Setaria faberii); assay: Test A preemergence; settings: Setaria faberi, pre-emergence, 240 h, 1000 g ai/ha, 0 to 100 scale, read-out: Plant response rating, Foxtail, Giant
Outline: as §3

corn (Zea mays) = assay: Test A postemergence; settings: Zea mays, post-emergence, 240 h, 1000 g ai/ha, 0 to 100 scale
Outline: as §3

[11] = system: ragweed (common ragweed, Ambrosia elatior); assay: Test A postemergence; settings: Ambrosia artemisiifolia, post-emergence, 240 h, 1000 g ai/ha, 0 to 100 scale, read-out: Plant response rating, Ragweed
Outline: as §3

kochia (Kochia scoparia) [12] = assay: Test A postemergence; settings: Bassia scoparia, post-emergence, 240 h, 1000 g ai/ha, 0 to 100 scale, read-out: Plant response rating, Kochia
Outline: as §3

[13] = system: pigweed (Amaranthus retroflexus); assay: Test A postemergence; settings: Amaranthus retroflexus, post-emergence, 240 h, 1000 g ai/ha, 0 to 100 scale, read-out: Plant response rating, Pigweed
Outline: as §3

[14] = system: barnyardgrass (Echinochloa crus-galli); assay: Test A postemergence; settings: Echinochloa crus-galli, post-emergence, 240 h, 1000 g ai/ha, 0 to 100 scale, 0 no effect, 100 complete control, read-out: Plant response rating, Barnyardgrass
Outline: as §3

[15] = system: Italian ryegrass (Lolium multiflorum); assay: Test A postemergence; settings: Lolium multiflorum, post-emergence, 240 h, 1000 g ai/ha, 0 to 100 scale, read-out: Plant response rating, Ryegrass, Italian
Outline: as §3

[16] = system: giant foxtail (Setaria faberii); assay: Test A postemergence; settings: Setaria faberi, post-emergence, 240 h, 1000 g ai/ha, 0 to 100 scale, read-out: Plant response rating, Foxtail, Giant
Outline: as §3

[17] = system: galium (catchweed bedstraw, Galium aparine); assay: Test A postemergence; settings: Galium, post-emergence, 240 h, 1000 g ai/ha, 0 to 100 scale, read-out: Plant response rating, Galium
Outline: as §3

[18] = system: blackgrass (Alopecurus myosuroides); assay: Test A postemergence; settings: Alopecurus myosuroides, post-emergence, 240 h, 1000 g ai/ha, 0 to 100 scale, read-out: Plant response rating, Blackgrass
Outline: as §3

[19] = system: wheat (Triticum aestivum); assay: Test A postemergence; settings: Triticum aestivum, post-emergence, 240 h, 1000 g ai/ha, 0 to 100 scale, read-out: Plant response rating, Wheat
Outline: as §3

`Fc1cnc(Oc2c(Cl)cccc2Oc2ncc(Cl)cn2)nc1` [Compound 18, 5-chloro-2-[5-chloro-6-[(5-fluoro-2-pyrimidinyl)oxy]phenoxy]pyrimidine] was tested, and the pest or weed control at 250 g/ha [1] was 100%, the plant injury at 250 g/ha (rice (Oryza sativa)) was 80% and the pest or weed control at 250 g/ha [2] was 100%. It also gave a pest or weed control at 250 g/ha [3] of 50%, a pest or weed control at 31 g/ha ([4]; 31 g ai/ha) of 0% and a pest or weed control at 62 g/ha ([4]; 62 g ai/ha) of 0%. It also gave a pest or weed control at 125 g/ha ([4]; 125 g ai/ha) of 0%, a pest or weed control at 250 g/ha ([4]; 250 g ai/ha) of 40% and a pest or weed control at 31 g/ha (wild oat (Avena fatua); 31 g ai/ha) of 0%. It also gave a pest or weed control at 62 g/ha (wild oat (Avena fatua); 62 g ai/ha) of 0%, a pest or weed control at 125 g/ha (wild oat (Avena fatua); 125 g ai/ha) of 5% and a pest or weed control at 250 g/ha (wild oat (Avena fatua); 250 g ai/ha) of 30%. It also gave a pest or weed control at 1000 g/ha [5] of 30%, a pest or weed control at 1000 g/ha (kochia (Kochia scoparia) [6]) of 100% and a pest or weed control at 1000 g/ha [7] of 100%. The pest or weed control at 1000 g/ha [8] was 100%, the pest or weed control at 1000 g/ha [9] was 70% and the pest or weed control at 1000 g/ha [10] was 100%. For the same compound, the Corn plant response rating (crop injury, 0 = no effect, 100 = complete kill) at 1000 g/ha (corn (Zea mays)) was 50%, the pest or weed control at 1000 g/ha [11] was 20% and the pest or weed control at 1000 g/ha (kochia (Kochia scoparia) [12]) was 100%. For the same compound, the pest or weed control at 1000 g/ha [13] was 100%, the pest or weed control at 1000 g/ha [14] was 80% and the pest or weed control at 1000 g/ha [15] was 100%. The pest or weed control at 1000 g/ha [16] was 100%, the pest or weed control at 1000 g/ha [17] was 100% and the pest or weed control at 1000 g/ha [18] was 100%. The plant injury at 1000 g/ha [19] was 50%.

From patent publication US20170190671A1, “BIS(ARYL)CATECHOL DERIVATIVES AS HERBICIDES” (E I DU PONT DE NEMOURS AND COMPANY, priority 2014, published 2017)
